Where a name gives a salt, the structure may show the parent alone.
Tests used:
Solubility = settings: for solubility compared with the compound described under (A): relative to Example 5(A)
[1] = tested on: L-dopa induced hypothermia and motor activity; assay: Interaction with L-dopa (hypothermia, depression and reduction of motor activity); format: in vivo; settings: 100 mg/kg; L-dopa 150 mg/kg, mice
Description: L-3,4-dihydroxyphenylalanine (L-dopa) was administered in a 150 mg/kg dose, which induces hypothermia, depression and reduction of motor activity.

[2] = tested on: mice immobilization (behavioural despair); assay: Behavioural despair model (duration of immobilization, swimming); format: in vivo, mice (tetrahybrids SVA); settings: 90 mg/kg; for Duration of mice immobilization, behavioural despair test: 6 minutes of observation
Description: In this test, mice (tetrahybrids SVA) were obliged to swim in a limited space, presented as a cylindrical vessel which was 15 cm high containing a water level of 6 cm maintained at a temperature of 21° C. A "slowing down" of swimming activity was observed. This "slowing down" is regarded to reflect the state of lowering of spirits and increasing despair of the mice. The slowing down is diminished by anti-depressants.
CAPAH was investigated in acute and chronic application (for 10 days). The mean duration of animal immobility for 6 minutes of observation was estimated in seconds.
CAPAH was injected in a dose of 90 mg/kg 40 minutes before the experiment.

[3] = Toxicity (LD100, LD50, MTD); format: in vivo; settings: for LD50 / MTD: in vivo; for LD50 / MTD / LD100: species and route not given; for MTD: read-out: MTD (maximum tolerance dose)
[4] = tested on: apomorphine-induced stereotypy; assay: Apomorphine-induced stereotypy in rats; format: in vivo; settings: 100 mg/kg, 40 min before apomorphine 20 mg/kg s.c.
Description: (§1) Stereotypy in rats was induced by subcutaneous administration of 20 mg/kg of apomorphine. The total duration of the stereotypy episode was evaluated and also the intensity of individual components thereof (licking, gnawing, sniffing). CAPAH was administered 40 minutes before the apomorphine as a 90 mg/kg dose to the mice and 100 mg/kg dose to the rats.

hypoxia induced amnesia = assay: Hypoxia induced amnesia, passive avoidance test; format: in vivo, Mongolian Gerbil
Source text: (§2) The protective effect of the compound CAPAH was studied in relation to both scopolamine and hypoxia induced amnesia in gerbils by the passive avoidance test.
(§3) Gerbils underwent a training schedule of "passive avoidance", i.e. they learned not to enter a dark compartment into which an electric shock was delivered.
The gerbils were trained as described above. To produce a hypoxic environment a gas-mixture (4% oxygen, 96% nitrogen) was blown through a plastic box (12 l/min). Immediately after the training period the gerbil was put into this hypoxic environment and removed when gasping was shown (maximum stay in the hypoxic box is 40 seconds).
(§4) The gerbils were trained as described above in a step-down type passive avoidance apparatus (Model E13-08, Coulbourn Instruments, Lehigh Valley, USA), divided into a safe part and a grill part. […] Training of the passive avoidance was carried out for 5 minutes. The gerbils were placed on the safety platform and received a series of mild electric shocks, […] (shock sensitivity determined for each batch of gerbils) for 3 seconds every 6 seconds when it stepped off the grill. Gerbils were returned to the apparatus for testing 24 hours later and their step-down latencies to the grill floor (recall latency) were recorded (maximum 60 seconds).
(§5) In both these series of experiments Piracetam was used as a control.

[5] = tested on: hypoxia induced by sodium nitrite; assay: Lifetime following hypoxia induced by sodium nitrite; format: in vivo, white mice; settings: 90 mg/kg i.p.
Description: (§6) The potential of CAPAH to provide neuroprotection following a stroke was illustrated by its anti-hypoxic properties in mice using both hypoxia induced directly by lack of oxygen in the atmosphere and hypoxia induced by sodium nitrite injection.
White mice in groups of eight with a weight in the range of 18 to 21 grams were injected subcutaneously with 300 mg/kg of aqueous sodium nitrite and their subsequent lifetime was recorded. A control group of mice received no additional pre-treatment but a second group received a prior intraperitoneal injection of 90 mg/kg CAPAH.

[6] = Pharmacological investigation (central nervous system); settings: in vivo
[7] = tested on: apomorphine-induced hypothermia; assay: Apomorphine-induced hypothermia in mice; format: in vivo; settings: 90 mg/kg, 40 min before apomorphine 25 mg/kg s.c.
Description: The effect of CAPAH on apomorphine-induced hypothermia and stereotypy was evaluated. The hypothermia was induced by subcutaneously injecting mice with 25 mg/kg of apomorphine. The change in skin temperature was recorded by a TPEM-1 thermometer immediately before injecting with apomorphine and also 60 and 120 minutes after the administration.
as §1

[8] = tested on: learned helplessness (avoidance reaction); assay: Learned helplessness model (avoidance reaction, shuttle chamber); format: in vivo, mice; settings: for Average latence of avoidance period / Percent of nonavoidance from total test number / Average latence of avoidable period: CAPAH 90 mg/kg, melipramine 7 mg/kg, i.p.
Description: The phenomenon of learned helplessness is that exposure to uncontrollable stress produces deficits in subsequent learning tasks. The preliminary non-avoidable aversive phase of the test was carried out in dark chambers (30 cm×15 cm×15 cm) with electrodes in the floor. Mice were placed into the chambers individually where they received a number of stimuli (150 mkA, 60 Hz) for 6 seconds with 30 second intervals. Exposure lasted for 40 minutes. 24 hours later the animals were tested in a "shuttle" chamber which consisted of two compartments with the electrode floor connected by the opening situated 1 cm above the base. The entrance to the neighbouring compartment was blocked by a door operated automatically. Stimulation (150 mkA) was directed in turn to each compartment with 30 second intervals and 4 seconds lag. After 10 sessions the door was closed and electric current stopped. The average summary latent time of avoidance was estimated as well as the total number of non-fulfilled reactions.
Experiments were carried out in 40 male […] weighing 18-20 g. Melipramine was used as a standard preparation. Preparations were injected intraperitoneally in doses: CAPAH--90 mg/kg, melipramine--7 mg/kg. Control animals received an equal quantity of distilled water. In the first control group (control 1) mice were not exposed to non-avoidable aversive stimulations; in the second control group (control 2) the animals were exposed to the preliminary non-avoidable aversive influence but without drug preparations.

[9] = tested on: hypoxia induced by direct lack of oxygen; assay: Lifetime following hypoxia induced by direct lack of oxygen; format: in vivo, white mice
Description: as §6
White mice in groups of six with a standard weight of 18 grams were placed in hermetically sealed jars and the lifetime of the animals was recorded.

[10] = tested on: scopolamine induced amnesia; assay: Scopolamine induced amnesia, passive avoidance test; format: in vivo, Mongolian Gerbil
Description: as §2, §3
Scopolamine Induced Amnesia
Gerbils received an intra-peritoneal injection of scopolamine (0.5 mg/kg) 30 minutes before the training procedure. The ability of CAPAH, given prior to scopolamine, to prevent the induced amnesia was determined.
as §4, §5

[11] = tested on: haloperidol-induced catalepsy; assay: Impact on catalepsy caused by haloperidol; format: in vivo; settings: 100 mg/kg
Description: Catalepsy was evaluated from the animal's ability to maintain an awkward posture (hind legs placed on a 30 mm high pedestal and forelegs on the bench) for 90 seconds at intervals of 10, 60 and 120 minutes after the latest administration of haloperidol.

[12] = U.S. Pat. Nos. 4,162,264 and 4,162,311; cited from earlier work

CN(C)c1ccc(P(=O)(CC(=O)NN)OCCCl)cc1 (stereo not drawn) [CAPAH hydrochloride]
water solubility (Solubility; water): high water solubility

CN(C)c1ccc(P(=O)(CC(=O)NN)OCCCl)cc1 (stereo not drawn) [CAPAH, (2-chloroethoxy)(p-N,N-dimethylaminophenyl)phosphinylacetohydrazide]
activity on L-dopa induced effects [1]: no activity
duration of "slowing down" (anti-depressant activity) ([2]; repeated application): lessens the duration of "slowing down"
Duration of mice immobilization, behavioural despair test ([2]; repeated injection (10 days)): 177.5 ± 17.5
Duration of mice immobilization, behavioural despair test ([2]; single injection, 40 min before): 210 ± 22.5 s
interval between the maximum tolerance dose (MTD) and the LD100 ([3]; comparison with DPAH): significantly greater interval
toxicity compared with DPAH ([3]; comparison with DPAH): less toxic
LD50 [3]: 960 ± 35 mg/kg
MTD [3]: 700 mg/kg
LD100 [3]: 1200 mg/kg
effect on apomorphine-induced stereotypy [4]: no effect
Latency (sec ± SEM), hypoxia induced amnesia (hypoxia induced amnesia; 1 mg/kg): 135 ± 21 s
Latency (sec ± SEM), hypoxia induced amnesia (hypoxia induced amnesia; 10 mg/kg): 111 ± 25 s
Latency (sec ± SEM), hypoxia induced amnesia (hypoxia induced amnesia; 30 mg/kg): 71 ± 28 s
Latency (sec ± SEM), hypoxia induced amnesia (hypoxia induced amnesia; 100 mg/kg): 119 ± 23 s
toxicity of the dose (hypoxia induced amnesia; 300 mg/kg (1/3 DL50)): toxic
Latency (sec ± SEM), hypoxia induced amnesia (hypoxia induced amnesia; 300 mg/kg): 20 ± 8 s
activity in hypoxia induced amnesia test (hypoxia induced amnesia; doses 1, 10, 100 mg/kg): active
activity in hypoxia induced amnesia test (hypoxia induced amnesia; doses 30, 300 mg/kg): Activity was absent
effect on lifetime, hypoxia induced by sodium nitrite [5]: extension of lifetime
Lifetime (± deviation), hypoxia induced by sodium nitrite ([5]; sodium nitrite 300 mg/kg s.c.): 16.9 ± 1.0 min
effect on the central nervous system [6]: selectively affects the central nervous system
effect on apomorphine-induced hypothermia [7]: no effect
anti-depressant effects, learned helplessness ([8]; 90 mg/kg, single and chronic treatment): marked anti-depressant effects
Average latence of avoidance period ([8]; 6-fold injection): 9.0 ± 0.7
Percent of nonavoidance from total test number ([8]; 6-fold injection): 2%
Average latence of avoidable period ([8]; 12-fold injection): 7.9 ± 0.7
Percent of nonavoidance from total test number ([8]; 12-fold injection): 1.3%
Average latence of avoidable period ([8]; single injection): 12.1 ± 1.5
Percent of nonavoidance from total test number ([8]; single injection): 19%
Lifetime (± deviation), hypoxia by direct lack of oxygen ([9]; 30 mg/kg i.p., second experiment): 16.4 ± 1.2 min
Lifetime (± deviation), hypoxia by direct lack of oxygen ([9]; 45 mg/kg i.p., first experiment): 18.8 ± 1.1 min
Lifetime (± deviation), hypoxia by direct lack of oxygen ([9]; 90 mg/kg i.p., first experiment): 17.0 ± 0.1 min
effect on lifetime, hypoxia by direct lack of oxygen ([9]; 90 or 45 mg/kg): extension of lifetime
Latency (sec ± SEM), scopolamine induced amnesia ([10]; 1 mg/kg): 35 ± 17 s
Latency (sec ± SEM), scopolamine induced amnesia ([10]; 10 mg/kg): 52 ± 21 s
Latency (sec ± SEM), scopolamine induced amnesia ([10]; 30 mg/kg): 36 ± 17 s
Latency (sec ± SEM), scopolamine induced amnesia ([10]; 100 mg/kg): 49 ± 16 s
Latency (sec ± SEM), scopolamine induced amnesia ([10]; 300 mg/kg): 76 ± 30 s
memory enhancement in scopolamine-induced amnesia ([10]; lower doses (below 300 mg/kg)): a trend towards memory enhancement
reversal of scopolamine-induced amnesia ([10]; only at 300 mg/kg): Statistically significant reversal
dopamine-mimetic activity [11]: reveals dopamine-mimetic activity
effect on haloperidol induced catalepsy ([11]; haloperidol 5 mg/kg hypodermic injection): reduces haloperidol induced catalepsy

NNC(=O)CP(=O)(c1ccccc1)c1ccccc1 [DPAH, diphenylphosphinylacetohydrazide, reference compound]
LD50 [3]: 315 ± 24.8 mg/kg
MTD [3]: 200 mg/kg
LD100 [3]: 500 mg/kg
properties of DPAH [12]: vegetropic, anti-epileptic and anti-serotonin properties

CC=CC=NNC(=O)CP(=O)(OCCCl)c1ccc(N(C)C)cc1 (stereo not drawn) [Example 5(A), N^β -(but-2-enylidene)-(2-chloroethoxy)-(p-N,N-dimethylaminophenyl)phosphinylacetohydrazide]
solubility in dimethyl sulphoxide and other aprotic polar solvents (Solubility; dimethyl sulphoxide and other aprotic polar solvents): soluble in dimethyl sulphoxide and other aprotic polar solvents
solubility in most organic solvents and in water (Solubility; most organic solvents and water): poorly soluble

CN(C)CCCN1c2ccccc2CCc2ccccc21 [Melipramine, reference compound]
Average latence of avoidance period ([8]; 6-fold injection): 11.8 ± 1.5
Percent of nonavoidance from total test number ([8]; 6-fold injection): 29%
Average latence of avoidable period ([8]; 12-fold injection): 9.2 ± 1.1
Percent of nonavoidance from total test number ([8]; 12-fold injection): 11%
Average latence of avoidable period ([8]; single injection): 13.5 ± 1.8
Percent of nonavoidance from total test number ([8]; single injection): 43%

CN(C)c1ccc(P(=O)(CC(=O)NN=CC=Cc2ccccc2)OCCCl)cc1 (stereo not drawn) [N^β -cinnamaylidene]
solubility compared with the compound described under (A) (Solubility): similar

CN(C)c1ccc(P(=O)(CC(=O)NN=Cc2cccc([N+](=O)[O-])c2)OCCCl)cc1 (stereo not drawn) [N^β -m-nitrobenzylidene]
solubility compared with the compound described under (A) (Solubility): similar

CN(C)c1ccc(P(=O)(CC(=O)NN=Cc2ccccc2O)OCCCl)cc1 (stereo not drawn) [N^β -o-hydroxybenzylidene]
solubility compared with the compound described under (A) (Solubility): similar

NC(=O)CN1CCCC1=O [Piracetam, reference compound]
Latency (sec ± SEM), hypoxia induced amnesia (hypoxia induced amnesia; 100 mg/kg): 107 ± 19 s
Latency (sec ± SEM), scopolamine induced amnesia ([10]; 100 mg/kg): 73 ± 24 s

Reference: patent US5679663A, “Pharmaceutical compounds” (priority 1996, dated 1997)
